Columns and labels:
[1] = tested on: HIV-1 (IIIB); test: Antiviral assay in MT-4 cells; type: cell-based; settings: Human immunodeficiency virus 1, MT4, 120 h; HIV-1 IIIB in MT-4 cells, 5 days incubation, Cell Titer Glo; read-out: MT4 EC50
Procedure, shortened: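 Read-out: CellTiter-Glo luminescence after 5 days at 37 °C, reflecting survival of MT-4 cells infected with HIV-1 IIIB (1:250 fresh stock dilution) versus mock-infected. Compounds serially diluted into RPMI with 10% FBS; AZT at 5 μM served as positive control.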

[2] = Cytotoxicity assay in MT-4 cells; type: cell-based; settings: human; uninfected MT-4 cells, 5 days incubation, Cell Titer Glo; read-out: MT4 CC50
Procedure, shortened: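 Viability read by Cell Titer Glo luminescence after 5 days at 37 °C. MT-4 cells, not infected, in complete RPMI (10% FBS), received compound dilution series. Base cytotoxicity set with […] puromycin.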

Row | EC50 [1] [nM] | SMILES | CC50 at 5 days [2] [µM]
1 | 4.84 | CCCCCCCCCCCCCC(=O)Oc1c2n(cc(C(=O)NCc3ccc(F)cc3F)c1=O)[C@@H]1CN(C2=O)[C@@H](C)CC[C@]12CC(C)=NO2 [Example 13, (3′S,5S,7′R)-10′-((2,4-difluorobenzyl)carbamoyl)-3,3′-dimethyl-1′,11′-dioxo-1′,4′,5′,11′-tetrahydro-3′H,4H,7′H-spiro[isoxazole-5,6′-[2,7]methanopyrido[1,2-a][1,4]diazonin]-12′-yl tetradecanoate] | 13.4
2 | 0.409 | CCCCCCCCOC(=O)Oc1c2n(cc(C(=O)NCc3ccc(F)cc3F)c1=O)[C@@H]1CN(C2=O)[C@@H](C)CC[C@]12CC(C)=NO2 [Example 135, (3′S,5S,7′R)-10′-((2,4-difluorobenzyl)carbamoyl)-3,3′-dimethyl-1′,11′-dioxo-1′,4′,5′,11′-tetrahydro-3′H,4H,7′H-spiro[isoxazole-5,6′-[2,7]methanopyrido[1,2-a][1,4]diazonin]-12′-yl octyl carbonate] | 14.2
3 | 32.3 | CCCCCCCCCCCCCCCCCC(=O)OCOc1c2n(cc(C(=O)NCc3ccc(F)cc3F)c1=O)[C@@H]1CN(C2=O)[C@@H](C)CC[C@]12CC(C)=NO2 [Example 107, (((3′S,5S,7′R)-10′-((2,4-difluorobenzyl)carbamoyl)-3,3′-dimethyl-1′,11′-dioxo-1′,4′,5′,11′-tetrahydro-3′H,4H,7′H-spiro[isoxazole-5,6′-[2,7]methanopyrido[1,2-a][1,4]diazonin]-12′-yl)oxy)methyl stearate] | ≥ 50
4 | 2.06 | CCCCCCCCCCCC(=O)Oc1c2n(cc(C(=O)NCc3ccc(F)cc3F)c1=O)[C@@H]1CN(C2=O)[C@@H](C)CC[C@]12CC(OC)=NO2 [Example 46, (3′S,5S,7′R)-10′-((2,4-difluorobenzyl)carbamoyl)-3-methoxy-3′-methyl-1′,11′-dioxo-1′,4′,5′,11′-tetrahydro-3′H,4H,7′H-spiro[isoxazole-5,6′-[2,7]methanopyrido[1,2-a][1,4]diazonin]-12′-yl dodecanoate] | 36.2
5 | 1.55 | CCCCCCCCCCOC(=O)OCOc1c2n(cc(C(=O)NCc3ccc(F)cc3F)c1=O)[C@@H]1CN(C2=O)[C@@H](C)CC[C@]12CC(C)=NO2 [Example 188, decyl ((((3′S,5S,7′R)-10′-((2,4-difluorobenzyl)carbamoyl)-3,3′-dimethyl-1′,11′-dioxo-1′,4′,5′,11′-tetrahydro-3′H,4H,7′H-spiro[isoxazole-5,6′-[2,7]methanopyrido[1,2-a][1,4]diazonin]-12′-yl)oxy)methyl) carbonate] | 38.5
6 | 0.539 | COC1=NO[C@@]2(CC[C@H](C)N3C[C@H]2n2cc(C(=O)NCc4ccc(F)cc4F)c(=O)c(OC(=O)CCCC(C)C)c2C3=O)C1 [Example 60, (3′S,5S,7′R)-10′-((2,4-difluorobenzyl)carbamoyl)-3-methoxy-3′-methyl-1′,11′-dioxo-1′,4′,5′,11′-tetrahydro-3′H,4H,7′H-spiro[isoxazole-5,6′-[2,7]methanopyrido[1,2-a][1,4]diazonin]-12′-yl 5-methylhexanoate] | 21
7 | 2.39 | CCCC/C=C\CCCCCCCC(=O)Oc1c2n(cc(C(=O)NCc3ccc(F)cc3F)c1=O)[C@@H]1CN(C2=O)[C@@H](C)CC[C@]12CC(OC)=NO2 [Example 31, (3′S,5S,7′R)-10′-((2,4-difluorobenzyl)carbamoyl)-3-methoxy-3′-methyl-1′,11′-dioxo-1′,4′,5′,11′-tetrahydro-3′H,4H,7′H-spiro[isoxazole-5,6′-[2,7]methanopyrido[1,2-a][1,4]diazonin]-12′-yl (Z)-tetradec-9-enoate] | 15.7
8 | 3.36 | CCCCCCCCCCOC(=O)Oc1c2n(cc(C(=O)NCc3ccc(F)cc3F)c1=O)[C@@H]1CN(C2=O)[C@@H](C)CC[C@]12CC(OC)=NO2 [Example 140, decyl ((3′S,5S,7′R)-10′-((2,4-difluorobenzyl)carbamoyl)-3-methoxy-3′-methyl-1′,11′-dioxo-1′,4′,5′,11′-tetrahydro-3′H,4H,7′H-spiro[isoxazole-5,6′-[2,7]methanopyrido[1,2-a][1,4]diazonin]-12′-yl) carbonate] | 15.9
9 | 1.67 | CCCCCCCCCCCCOC(=O)OCOc1c2n(cc(C(=O)NCc3ccc(F)cc3F)c1=O)[C@@H]1CN(C2=O)[C@@H](C)CC[C@]12CC(OC)=NO2 [Example 191, (((3′S,5S,7′R)-10′-((2,4-difluorobenzyl)carbamoyl)-3-methoxy-3′-methyl-1′,11′-dioxo-1′,4′,5′,11′-tetrahydro-3′H,4H,7′H-spiro[isoxazole-5,6′-[2,7]methanopyrido[1,2-a][1,4]diazonin]-12′-yl)oxy)methyl dodecyl carbonate] | ≥ 50
10 | 5.93 | CCCCCCCCCCCCCCCCOC(=O)Oc1c2n(cc(C(=O)NCc3ccc(F)cc3F)c1=O)[C@@H]1CN(C2=O)[C@@H](C)CC[C@]12CC(OC)=NO2 [Example 145, (3′S,5S,7′R)-10′-((2,4-difluorobenzyl)carbamoyl)-3-methoxy-3′-methyl-1′,11′-dioxo-1′,4′,5′,11′-tetrahydro-3′H,4H,7′H-spiro[isoxazole-5,6′-[2,7]methanopyrido[1,2-a][1,4]diazonin]-12′-yl hexadecyl carbonate] | ≥ 50
11 | 1.18 | CCC(=O)Oc1c2n(cc(C(=O)NCc3ccc(F)cc3F)c1=O)[C@@H]1CN(C2=O)[C@@H](C)CC[C@]12CC(OC)=NO2 [Example 32, (3′S,5S,7′R)-10′-((2,4-difluorobenzyl)carbamoyl)-3-methoxy-3′-methyl-1′,11′-dioxo-1′,4′,5′,11′-tetrahydro-3′H,4H,7′H-spiro[isoxazole-5,6′-[2,7]methanopyrido[1,2-a][1,4]diazonin]-12′-yl propionate] | 31.7
12 | 1.73 | CCOC(=O)Oc1c2n(cc(C(=O)NCc3ccc(F)cc3F)c1=O)[C@@H]1CN(C2=O)[C@@H](C)CC[C@]12CC(C)=NO2 [Example 123, (3′S,5S,7′R)-10′-((2,4-difluorobenzyl)carbamoyl)-3,3′-dimethyl-1′,11′-dioxo-1′,4′,5′,11′-tetrahydro-3′H,4H,7′H-spiro[isoxazole-5,6′-[2,7]methanopyrido[1,2-a][1,4]diazonin]-12′-yl ethyl carbonate] | 14.1
13 | 3.89 | COC1=NO[C@@]2(CC[C@H](C)N3C[C@H]2n2cc(C(=O)NCc4ccc(F)cc4F)c(=O)c(OCOC(=O)CCCCC(C)C)c2C3=O)C1 [Example 114, (((3′S,5S,7′R)-10′-((2,4-difluorobenzyl)carbamoyl)-3-methoxy-3′-methyl-1′,11′-dioxo-1′,4′,5′,11′-tetrahydro-3′H,4H,7′H-spiro[isoxazole-5,6′-[2,7]methanopyrido[1,2-a][1,4]diazonin]-12′-yl)oxy)methyl 6-methylheptanoate] | 19.7
14 | 11.7 | CCCCCCCCCCCCCCCC(=O)OCOc1c2n(cc(C(=O)NCc3ccc(F)cc3F)c1=O)[C@@H]1CN(C2=O)[C@@H](C)CC[C@]12CC(OC)=NO2 [Example 104, (((3′S,5S,7′R)-10′-((2,4-difluorobenzyl)carbamoyl)-3-methoxy-3′-methyl-1′,11′-dioxo-1′,4′,5′,11′-tetrahydro-3′H,4H,7′H-spiro[isoxazole-5,6′-[2,7]methanopyrido[1,2-a][1,4]diazonin]-12′-yl)oxy)methyl palmitate] | ≥ 50
